Measurements: patent publication US20240082342A1, “PEPTIDE THERAPEUTICS FOR INCREASING LUNG CELL VIABILITY” (BOARD OF REGENTS, THE UNIVERSITY OF TEXAS SYSTEM, priority 2018, published 2024)
“Also recorded” adds a separate entry of the source.

How the values were obtained:
[1] = tested on: A2Cs and lungs of WT mice with CLP injury; assay: Cecal ligation puncture (CLP) sepsis-induced ALI in WT mice; assay type: in vivo, mouse
Procedure: This model was described in detail in publication of the present inventor and colleagues, Gao, R et al., Am. J. Physiol. Mol. Physiol, 2015, 308:L847-L853.
WT mice were injected IP with vehicle, 1.5 mg/kg of CSP or control peptide (CP) 24 h after CLP injury. Sham-operated mice served as controls. Total RNA isolated from the lungs of these mice 72 h after CLP was quantitated for IL-17A mRNA by real-time PCR.
A2Cs were isolated from the lungs of these mice 72 h after CLP, and immunoblotted to assess changes in PAI-1, p53 and caspase-3 activation. All were increased by 72 h during CLP injury.
Mice were injected IP with CSP or control peptide (CP) 24 h after CLP injury. A2Cs isolated from these mice 72 h after CLP injury were immunoblotted for caveolin-1 and β-actin. Lysates of A2Cs from WT mice exposed to the above conditions were immunoprecipitated (IP) for PP2A-C and immunoblotted (IB) for caveolin-1 (Cav1) to assess their interaction.
Mice treated with or without CSP or CP 24 h after CLP injury were euthanized 72 h later and. lung tissues subjected to H&E staining to assess changes in lung inflammation. Lung homogenates and BAL fluids were analyzed for myeloperoxidase (MPO) to access PMN accumulation.
Mice were IP injected with CSP, CP or vehicle 24 h after CLP injury. Total RNA isolated from A2Cs of WT mice with or without CLP, CLP+CSP or CLP+CP 72 h after CLP induced ALI was reverse transcribed and subjected to real time PCR.
A2Cs isolated from mice with CLP, CLP+CSP or CLP+CP were immunoblotted for SP-C, thyroid transcription factor-1 (TTF-1) and β-actin. TTF-1 controls transcription of SP-C.
A2Cs isolated from mice 72 h after IP injection with CSP or CP alone without CLP injury and the lysates were immunoblotted for changes in SP-C expression. Lysates of A2Cs from uninjured (sham-operated) or CLP mice were also used for comparison.

[2] = tested on: AECs from human nL exposed to CSE; assay: Normal lung AECs exposed to TS/CS extract in vitro for 48 h; assay type: cell-based
Procedure: Primary Airway Epithelial Cells (AECs); Normal, Human (ATCC® PCS-301-010™) and Primary Airway Epithelial Cells; COPD (ATCC® PCS-301-013™) were obtained from the ATCC and cultured in Airway Cell Basal Medium with glutamine, Extract P, HLL Supplement, and AEC Supplement. containing and 1% penicillin-streptomycin. The cells were maintained at 37° C. in a humidified atmosphere at 5% CO2. All media, supplements, and antibiotics were purchased from ATCC.
Research cigarettes 2R4F were purchased from the Tobacco Health Research University of Kentucky (Lexington, KY). TSE extracts were prepared by burning research cigarettes in a side arm flask and the smoke generated was bubbled into phosphate-buffered saline at room temperature through an attached peristaltic pump as described earlier (Bhandary et al PloS One 10: e0123187, 2015) Tiwari et al. Am J Physiol Lung Cell Mol Physiol. 310:L496-506, 2016. An absorbance of 1.0 at 230 nm is considered 100%. TSE extract was filter sterilized by passing it through a 0.2-μm filter.
Preparation of CSE for the treatment of AECs in vitro. Research cigarettes 2R4F were purchased from the Tobacco Health Research, University of Kentucky (Lexington, KY). CSE were prepared by burning research cigarettes in a sidearm flask and the smoke generated was bubbled into phosphate-buffered saline (PBS) at room temperature through an attached peristaltic pump as described earlier (Shetty et al, 2012). An absorbance of 1.0 at 230 nm is considered 100%. CSE was filter sterilized by passing it through a 0.2-μm filter.
CSP7 inhibits MH and cilia dysfunction in AECs exposed to CS extract (CSE). To further confirm the above findings, AECs isolated from human nL were exposed to CSE in vitro for 48 h and analyzed for MUC5AC, HDAC6, FOXA2, FOXA3, SPDEF, acetylated alpha-tubulin, p53, PAI-1 and LC3. […] The changes at protein level allied with corresponding changes at the mRNA levels (FIG. 36B). […] CSE induced co-localization of MUC5AC and HDAC6, and acetylated alpha-tubulin and LC3 were inhibited following treatment with CSP7.

[3] = tested on: AECs from nL overexpressing CAV1, p53 or PAI-1; assay: AECs transduced with Ad-CAV1, Ad-p53 or Ad-PAI-1; assay type: cell-based, human
Procedure: Expression of CAV1, p53, or PAI-1 in AECs. AECs isolated from nL were separately transduced with Ad-CAV1 or Ad-p53 or Ad-PAI-1. AECs transduced with Ad-Ev were used as controls. In a separate experiment, AECs from nL in culture dishes were treated with Lv-p53 or Lv-PAI-1 shRNA to suppress its baseline expression before treating these cells with CSE. Naive AECs and AECs exposed to non-specific control shRNA was used as controls.

Substance	IL-17A in lung tissues ([1]; 1.5 mg/kg IP 24 h after CLP, 72 h)	miR-34a expression in A2Cs (real time PCR, normalized to U6) ([1]; 72 h after CLP)	A2C apoptosis, p53 and PAI-1 expression ([1]; IP 24 h after CLP, 72 h)	A2C caveolin-1 interaction with PP2A-C (IP/IB) ([1]; IP 24 h after CLP, 72 h)	accumulation of PMN (MPO, H&E) ([1]; IP 24 h after CLP, 72 h)	SP-C expression by A2Cs ([1]; normal lungs, without CLP injury, 72 h after IP)	SP-C expression by A2Cs ([1]; sepsis-induced ALI)	inhibition of miR-34a in A2Cs ([1]; vs CLP or CLP+CP, 3 days after injury) [fold]	cilia length and number of ciliated cells ([2]; nL AECs + TSE/CSE)	acetylated alpha-tubulin (immunofluorescence) ([2]; AECs + CSE)	TS-induced MUC5A gene expression ([2]; bronchial epithelial cells)	Caveolin1 expression ([2]; nL AECs + TSE)	MUC5AC, HDAC6, FOXA3, SPDEF and FOXA2 mRNA (qPCR) ([2]; nL AECs + TSE)	autophagy protein markers (Western blot) ([2]; nL AECs + TSE)	co-localization of MUC5AC/HDAC6 and Ac-Tubulin/LC3 ([2]; nL AECs + TSE/CSE)	MUC5AC, HDAC6, FOXA3, SPDEF, CAV1, p53, PAI-1, LC3, FOXA2, Ac-Tub proteins (Western blot) ([2]; nL AECs + TSE/CSE 48 h)	MUC5AC, HDAC6, FOXA3, LC3, FOXA2, acetylated alpha-tubulin; mucus hypersecretion and cilia disassembly ([3]; Ad-CAV1 transduced AECs)	p53 and PAI-1 expression ([3]; Ad-CAV1 transduced AECs)	MUC5AC, HDAC6, FOXA3, p53, LC3, acetylated alpha-tubulin ([3]; Ad-PAI-1 transduced AECs)	MUC5AC, acetylated alpha-tubulin, FOXA2, CAV1, p53, PAI-1 ([3]; Ad-p53 transduced AECs)
DGIWKASFTTFTVTKYWFYR (listed as Homo sapiens) [CSP, 20 residue caveolin-1 scaffolding domain peptide]	suppressed sepsis induced IL-17A	significantly reduced	concurrent inhibition of A2C apoptosis and p53 and PAI-1 expression	inhibited the A2C caveolin-1 interaction with PP2A-C	significantly inhibited accumulation of PMN	induced SP-C expression	induction of SP-C expression	7	–	–	–	–	–	–	–	–	–	–	–	–
WGIDKAFFTTSTVTYKWFRY [CP, scrambled control peptide with the same amino acid composition as CSP, reference compound]	–	–	–	–	–	–	–	–	failed to respond	–	–	–	–	–	–	–	–	–	–	–
FTTFTVT (listed as Homo sapiens) [CSP7, heptapeptide fragment of the caveolin-1 scaffolding domain peptide CSP]	–	–	–	–	–	–	–	–	significantly improved; also recorded: significantly reversed	improved; also recorded: reversed with CSP7 treatment	inhibited TS-induced MUC5A gene expression	reversed by CSP7	reversed by CSP7 treatment	reversed by CSP7	reversal of the co-localization; also recorded: inhibited	reversed with CSP7 treatment	can mitigate the mucus hypersecretion and cilia disassembly; also recorded: reduced CAV1-induced MUC5AC, HDAC6, FOXA3, and LC3 while restoring FOXA2 and acetylated alpha-tubulin	reduced the expression of p53 and PAI-1	reversed	reduced MUC5AC and restored acetylated alpha-tubulin and FOXA2, while inhibiting CAV1, p53, and PAI-1
